Data taken from patent US20070031336A1, “3H-phenoxazine derivatives suitable as near-infrared imaging agents, preparation an use thereof” (priority 2003, published 2007).

Assays:
[1] = biological target: T1, aggregated Aβ peptide Aβ1-140 (Homo sapiens, UniProt P05067); assay: Binding to aggregated Aβ in solution by differential fluorescence spectroscopy
T1 construct: aggregated Aβ peptide Aβ1-140 in solution
Procedure: (§1) Binding of the agent of the invention (compound Ex. 3) to aggregated Aβ peptide Aβ1-140 in solution is investigated by differential fluorescence spectroscopy and thioflavine displacement. […] Difference spectra are recorded at different concentrations of the agent of the invention (compound Ex. 3) with the magnitude of the fluorescence shift being dependent on the concentration of aggregated Aβ. Saturation is observed at high concentrations of the agent of the invention (compound Ex. 3), and the Kd-value for the agent of the invention (compound Ex. 3) is estimated to be 0.2 μM. In another experiment, aggregated Aβ is incubated with thioflavine T, where fluorescence intensity at 460-560 nm (excitation 445 nm) represents thioflavine bound to aggregated Aβ.

[2] = UV/VIS absorption spectra; type: physicochemical
Procedure: (§2) UV/VIS and fluorescence spectra are recorded and analyzed. For UV/VIS spectra, a Lambda 19 spectrometer from Perkin Elmer equipped with cells of 1.000 cm pathlength is used. The scan rate is 120 nm/min. The fluorescence data are obtained on a Spex Fluorolog (I.S.A.) spectrometer equipped with a cooled R928 detector (Slit 1 mm). Quantum yields are determined by using Cresylviolett (exc. 595 nm, yield=0.54) as standard.

AD plaques = assay: In vivo near-infrared imaging in APP23 mice; design: species or system mouse; conditions: female 16-months-old transgenic APP23 mice, 3 mg/kg i.v.
Procedure: For in vivo near-infrared imaging, 10- to 24-months-old transgenic APP23 mice (3≦n≦5) and as control, non-transgenic APP23 mice of the same age (3≦n≦4) are injected intravenously (i.v.) into the tail-vein with 0.1, 1 and 3 mg/kg agent of invention (0.1, 1 and 3 mg/10 ml in 0.9% saline). Images are recorded 30, 60, 120 and 240 min after systemic administration.

aggregated Aβ = biological target: T2, aggregated Aβ (Homo sapiens, UniProt P05067); assay: Thioflavine T displacement from aggregated Aβ; type: binding; conditions: fluorescence 460-560 nm, excitation 445 nm
T2 construct: aggregated Aβ peptide Aβ1-140 in solution
Procedure: as §1

[3] = Fluorescence spectra and quantum yield; type: physicochemical; conditions: for Fluorescence φ (quantum yield): standard Cresylviolett
Procedure: as §2

[4] = exc. 595 nm; cited from earlier work

T2 sequence (P05067 672-711 limits assumed): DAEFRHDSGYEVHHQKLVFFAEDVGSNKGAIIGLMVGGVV
T1 sequence (P05067 672-711 limits assumed): as above

SMILES	Kd ([1]; estimated from difference spectra, saturation at high concentrations) [nM]	Change of fluorescence spectrum upon β-amyloid binding ([1]; range of 680-720 nm)	Absorption ε ([2]; solvent H2O) [I/Mcm]	Absorption λmax ([2]; solvent H2O) [nm]	Absorption ε ([2]; solvent methanol) [I/Mcm]	Absorption λmax ([2]; solvent methanol) [nm]	Absorption λmax ([2]; solvent mouse serum) [nm]	Specific binding to AD plaques (FIG. 1) (AD plaques)	Effect on fluorescence of thioflavine bound to aggregated Aβ (aggregated Aβ)	Kd (aggregated Aβ; thioflavine concentrations 0.37 μM-3 μM, read-out: apparent binding constants) [nM]	Fluorescence λmax ([3]; solvent H2O) [nm]	Fluorescence φ (quantum yield) ([3]; solvent H2O) [%]	Fluorescence λmax ([3]; solvent methanol) [nm]	Fluorescence φ (quantum yield) ([3]; solvent methanol) [%]	Fluorescence λmax ([3]; solvent mouse serum) [nm]	Fluorescence φ (quantum yield) ([3]; solvent mouse serum) [%]	Quantum yield of the standard [4]
CN1CCOc2cc3c(cc21)Oc1cc2c(cc1=N3)OCC[N+]=2C.F[B-](F)(F)F [Ex. 3, 4,8-Dimethyl-3,8,9,10-tetrahydro-2H-1,6,11-trioxa-8,13-diaza-4-azonia-pentacen tetrafluoroborate]	~200	slightly reduced fluorescence intensity	61930	650	64570	644	650	specific binding	concentration-dependent fluorescence reduction	100 to 200	670	37	670	61	670	41	
N=c1ccc2nc3c(cc(N)c4ccccc43)oc-2c1 [Cresylviolett]																	0.54
CN1CCOc2cc3c(cc21)Oc1cc2c(cc1=N3)SCC[N+]=2C.[Cl-] [Ex. 4, 4,8-Dimethyl-2,3,9,10-tetrahydro-4H-1,6-dioxa-11-thia-4,13-diaza-8-azonia-pentacen chloride]			12880	665	13920	659	665				695	12	695	28	695	13	
CC[N+]1=c2cc3c(cc2CCC1)=Nc1cc2c(cc1O3)N(C)CCO2.[Cl-] [Ex. 2, 8-Ethyl-4-methyl-2,3,4,9,10,11-hexahydro-1,6-dioxa-4,13-diaza-8-azonia-pentacen chloride]			56700	657	67430	649	658				677	24	677	61	677	28	
